Patent US3935221A, “Substituted fusaric acid derivatives” (Banyu Pharmaceutical Co., Ltd., priority 1971, dated 1976)
Read-outs that look alike come from different tables or passages of the source.

Legend:
Solubility = type: physicochemical; details: qualitative
[1] = Acute toxicity, LD50 of each drug in male mice (DBA); type: in vivo; details: mouse, in vivo
From the text: (§1) In this invention, 10-monohalo-fusaric acid can be prepared by dissolving dehydrofusaric acid in water or other suitable organic solvent, if necessary, together with a suitable reagent for generating hydrogen halide. Hydrogen halide is then introduced or generated to effect the addition reaction. […] The halo-fusaric halide can be prepared by reacting halogenating agent such as thionylchloride, hydrochloride with halo-fusaric acid in a solvent. The solvent can be inert solvent or halogenating agent such as thionyl chloride. The ahlo-fusaric acid amides of the invention can be prepared from the halo-fusaric halide in a solvent by introducing ammonia gas or adding methylamine, dimethylamine, ethylamine, diethylamine, etc.. The halogenating agents used for preparing halo-fusaric halide can be thionylchloride, hydrochloride, phosphorus pentachloride and phosphorus oxychloride. The thionylchloride can be used without a solvent, however, it is usual to carry out the halogenation of halo-fusaric acid in a solvent such as chloroform, benzene, etc.. The halo-fusaric halide reacts with ammonia or a lower alkylamine in a solvent such as chloroform, benzene, etc.. The ahlo-fusaric acid amide can be prepared from halo-fusaric acid ester by reacting it with an alkylamine. The halo-fusaric acid ester can be prepared by reacting halo-fusaric acid with an alcohol in the presence of […]. The details of the preparation of the halo-fusaric acid can be understood from the description of the examples. The halo-fusaric acid amides of the invention are characterized by a significant anti-hypertensive effects and low toxicity. The followings are test results of anti-hypertensive effects and toxicities of the typical halo-fusaric acid amides of the invention. The anti-hypertensive effects of dibromo, monobromo, dichloro and monochloro fusaric acid amide, monomethylamide, dimethylamide were compared with those of dibromofusaric acid and fusaric acid. Blood pressure of spontaneously hypertensive rats (SHR) derived from the colony of SHR produced by selective inbreeding of a strain of Wistar rats (Okamoto and Aoki, Jap. Circul. J. 27:282-293, 1963) was measured indirectly in unanaesthesized rats plethysmographically (Williams et al, J. Clin. Invest. 18:373-376, 1939). Thirty percent depression of systolic blood pressure was defined to be significant and effective change. […] LD50 of each drug was obtained using male mice (DBA).

male mice (DBA) = assay: as above; type: in vivo; details: male mice (DBA), summary statement
From the text: as §1

[2] = tested on: spontaneously hypertensive rats (SHR); assay: Antihypertensive action in spontaneously hypertensive rats, systolic blood pressure measured plethysmographically; type: in vivo, Wistar-derived); details: for ED50: Rattus norvegicus
From the text: as §1

dopamine-β-hydroxylase = details: prior art statement; cited from earlier work
[3] = prior art statement; cited from earlier work
[4] = ip, intraperitoneal, male mice (DBA), read-out: LD50 (mg/kg) Intraperitaneally
[5] = oral, male mice (DBA), read-out: LD50 (mg/kg) Orally
[6] = ip, read-out: ED50 (mg/kg) Intraperitoneally
[7] = po, read-out: ED50 (mg/kg) Orally
[8] = ip, antihypertensive action, intraperitoneal, SHR, 30% depression of systolic blood pressure defined as effective, read-out: ED50 (mg/kg) Intraperitoneally
[9] = antihypertensive action, oral, SHR, 30% depression of systolic blood pressure defined as effective, read-out: ED50 (mg/kg) Orally

| Compound | Solubility: insoluble (Solubility) | Solubility: soluble (Solubility) | LD50 [1, 4] | LD50 [1, 5] | toxicity (in words) (male mice (DBA)) | ED50 [2, 6] | ED50 [2, 7] | anti-hypertensive effects (in words) ([2]; SHR, summary statement) | ED50 [2, 8] | ED50 [2, 9] | LD50 ([1]; ip) | LD50 ([1]; po) | inhibition of the production of dopamine-β-hydroxylase (dopamine-β-hydroxylase) | toxicity [3] |
| --- | --- | --- | --- | --- | --- | --- | --- | --- | --- | --- | --- | --- | --- | --- |
| CC(Br)CCc1ccc(C(=O)O)nc1 (stereo not shown) [10-bromo-fusaric acid, 5-(3-bromobutyl)picolinic acid] | insoluble in n-hexane, petroleum ether | soluble in alcohol, chloroform, acetone, benzene, ethylacetate, and is soluble in hot water but difficulty soluble in cold water | – | – | – | – | – | – | – | – | – | – | – | – |
| NC(=O)c1ccc(CCC(Br)CBr)cn1 (stereo not shown) [Compound 1, 5-(3,4-Dibromobutyl)picolinamide] | Insoluble in water, ether | Soluble in alcohol, acetone, benzene, chloroform | 1170 mg/kg | 1860 mg/kg | the least toxic | 1 mg/kg | 1.6 mg/kg | the most effective drug for hypertension | – | – | – | – | – | – |
| CC(Br)CCc1ccc(C(N)=O)nc1 (stereo not shown) [Compound 2, 5-(3-Bromobutyl)picolinamide] | – | – | 633 mg/kg | 1050 mg/kg | – | – | – | – | 2 mg/kg | 4 mg/kg | – | – | – | – |
| CN(C)C(=O)c1ccc(CCC(Br)CBr)cn1 (stereo not shown) [Compound 3, N.N-Dimethyl-5-(3,4-dibromobutyl)picolinamide] | – | – | – | – | – | – | – | – | 3 mg/kg | 4 mg/kg | 304 mg/kg | 500 mg/kg | – | – |
| NC(=O)c1ccc(CCC(Cl)CCl)cn1 (stereo not shown) [Compound 4, 5-(3,4-Dichlorobutyl)picolinamide] | Insoluble in water, ether | Soluble in methanol, acetone, benzene, chloroform | 374 mg/kg | 620 mg/kg | – | – | – | – | 2 mg/kg | 4 mg/kg | – | – | – | – |
| CN(C)C(=O)c1ccc(CCC(Cl)CCl)cn1 (stereo not shown) [Compound 5, N.N-Dimethyl-5-(3,4-dichlorobutyl)picolinamide] | – | – | – | – | – | – | – | – | 5 mg/kg | 1.6 mg/kg | 188 mg/kg | 300 mg/kg | – | – |
| O=C(O)c1ccc(CCC(Br)CBr)cn1 (stereo not shown) [Compound 6, 5-(3,4-dibromobutyl)picolinic acid, reference compound] | insoluble in cold water and petroleum ether | soluble in alcohol, chloroform, benzene, ethylacetate, and hot water | 132 mg/kg | 180 mg/kg | – | – | – | – | 3.2 mg/kg | 4 mg/kg | – | – | – | – |
| CCCCc1ccc(C(=O)O)nc1 [Compound 7, Fusaric acid] | – | – | 110 mg/kg | 130 mg/kg | – | 3.5 mg/kg | 4 mg/kg | – | – | – | – | – | inhibit the production of dopamine-β-hydroxylase | quite high in toxicity |
